Each block holds one molecule with its values, some of them ahead of it.
Columns and labels:
[1] = tested on: SK-MEL-28 melanoma cells; assay: HPLC/MS analyses of MTX, TMECG-QM and DHF in whole cell extracts; type: cell-based, human; settings: SK-MEL-28 whole cell extracts, 24 h, MTX 1 μM and/or TMECG 10 μM; control 3.8 ± 1.1
Description: By way of example, the present inventors have shown that an active agent, such as MTX, may be used to increase TYR expression, thereby increasing the conversion of a catechin to its quinone methide form. The inventors have undertaken HPLC analyses of MTX, TMECG-QM, and DHF in whole cell extracts of SK-MEL-28 melanoma cells that were subjected to MTX (1 μM) and TMECG (10 μM) individual and combined treatments (see Table 1).

[2] = tested on: B16/F10 melanoma cells; assay: Subcutaneous B16/F10 melanoma model in C57BL/6 mice; type: in vivo, mouse; settings: compared to untreated mice
Description: FIGS. 4A-N. MTX and TMECG combination therapy is effective in vivo. A, A375 melanoma cells were included in a human reconstructed skin model and were treated with MTX (1 μM) and/or TMECG (10 μM) for 14 days. B, B16/F10 melanoma cells were injected subcutaneously into C57/B16 mice. Images show tumor size 17 days post-injection in control and treated mice. […] C, Luciferase imaging of control and MTX/TMECG-treated mice 12 days post-tumor cell injection. Beetle luciferin (120 mg/kg of mouse) was injected intraperitoneally. The values (means±s.d.) are representative of three independent experiments. *P=0.007; **P=0.002. […] E, Quantification of macrometastases (0-10, 10-25 or >25) after treatment with vehicle (control), MTX (1 mg/kg/day), and/or TMECG (50 mg/kg/day). […] B16/F10 cells extracted from tumors were examined for their sensitivity to the MTX/TMECG combination (1 μM and 10 μM, respectively) using quantification of the luminescence signal (left panel). […]
Animals were bred and maintained according to the Spanish legislation on the ‘Protection of Animals used for Experimental and other Scientific Purposes’ and in accordance with the directives of the European community. […] Primary spleen tumors and hepatic metastases at 12 and 14 days, respectively, were analyzed using the IVIS Imaging System (Caliper Life Sciences). […]

[3] = tested on: B16/F10 primary splenic tumors; assay: Primary spleen tumors after intrasplenic injection of luciferase-tagged B16/F10 cells; type: in vivo, mouse
Description: C, Luciferase imaging of control and MTX/TMECG-treated mice 12 days post-tumor cell injection. Beetle luciferin (120 mg/kg of mouse) was injected intraperitoneally. The values (means±s.d.) are representative of three independent experiments. *P=0.007; **P=0.002. […] Xenograft tumors treated with DMSO (vehicle) or MTX/TMECG (1 mg/kg/day and 50 mg/kg/day, respectively) over 14-days. […] Representative images taken from two independent experiments (n=5 for each experiment). Scale bar=200 μm and is applicable to both panels. I, B16/F10 melanoma cells, expressing a luciferase reporter, were injected subcutaneously to mice. Mice were divided in two groups (n=7) and treated with vehicle (DMSO) or MTX/TMECG (1 mg/kg/day and 10 mg/kg/day, respectively) over 21-days. Then, tumors were pooled and dissociated. B16/F10 cells extracted from tumors were examined for their sensitivity to the MTX/TMECG combination (1 μM and 10 μM, respectively) using quantification of the luminescence signal (left panel). […] Scale bar refers to all panels. […] Mice were treated with vehicle, MTX (1 mg/kg/day), and/or TMECG (50 mg/kg/day). […] Scale bar refers to all panels.
A, Luciferase imaging of vehicle (control), MTX, and/or TMECG-treated mice 12 days post-tumor cell injection. Firefly luciferin (120 mg/kg of mouse) was injected intraperitoneally. The values are representative of three independent experiments. […] The number of cells was estimated by extrapolation of the experimental luciferase signal to calibration curves. A straight line with a good linear correlation coefficient (0.998) was obtained by plotting luciferase signal vs number of B16/F10-luc2 cells. Treatment of mice (n=6) started 24 hr after tumor induction (Day 1). For all experiments: *p<0.05 with respect to control mice; #p<0.05 with respect to individual MTX or TMECG treatments.

[4] = Pharmacokinetic studies in mice plasma; type: in vivo; settings: mouse, ip, male C57BL/6 mice, intra-peritoneal TMECG 50 mg/kg alone or with MTX 50 mg/kg
Description: Pharmacokinetic studies were performed in male C57BL/6 mice after intra-peritoneal injection of MTX (50 mg/kg) and/or TMECG (50 mg/kg). Animals were anesthetized with CO2, and whole blood samples (˜0.5 mL) were collected via cardiac puncture. Samples for drug quantification were collected from different animals (in triplicate) at 5, 15, and 30 min and at 1, 2, 4, and 6 hr post-dose. Whole blood samples were transferred to lithium heparin blood collection tubes, and then centrifuged at 10,000 rpm for 10 min at 4° C. After plasma deproteinization with 5% trichloroacetic acid (TCA), MTX and TMECG plasma concentrations were calculated by HPLC. Pharmacokinetic parameters were estimated using the WinNonlin software package (WinNonlin Professional version 5.1., Pharsight Corporation, CA). WinNonlin model 200 was used for the non-compartmental analysis of the concentration-time data. The area under the plasma concentration-time curve (AUClast) from time 0 to the last point (tlast) with measurable concentration (Clast) was estimated using a linear trapezoidal approximation (AUClast). The elimination half-life (t1/2) was calculated as ln2/kel, where kel (elimination rate constant) was estimated using least squares regression analysis of the concentration-time data obtained during the terminal log-linear elimination phase. The maximum plasma concentrations (Cmax) were estimated directly from the data, with tmax being defined as the time of the first occurrence of Cmax.

[5] = Toxicology in non-tumor inoculated C57BL/6 mice; type: in vivo, mouse
Description: FIGS. 4A-N. MTX and TMECG combination therapy is effective in vivo. A, A375 melanoma cells were included in a human reconstructed skin model and were treated with MTX (1 μM) and/or TMECG (10 μM) for 14 days. B, B16/F10 melanoma cells were injected subcutaneously into C57/B16 mice. Images show tumor size 17 days post-injection in control and treated mice. […] C, Luciferase imaging of control and MTX/TMECG-treated mice 12 days post-tumor cell injection. Beetle luciferin (120 mg/kg of mouse) was injected intraperitoneally. The values (means±s.d.) are representative of three independent experiments. *P=0.007; **P=0.002. D, Bioluminescent imaging of livers at 14 days post-intrasplenic injection of B16-F10-luc-G5 cells from untreated and MTX/TMECG-treated mice are shown. E, Quantification of macrometastases (0-10, 10-25 or >25) after treatment with vehicle (control), MTX (1 mg/kg/day), and/or TMECG (50 mg/kg/day). F, Photomicrograph of H&E-stained, 4 μm formalin-fixed, paraffin-embedded liver sections from control (DMSO) and MTX/TMECG-treated mice (1 and 50 mg/kg/day, respectively) (5× magnification). G, MTX activation of MITF and tyrosinase activates the melanoma-specific antifolate activity of TMECG, leading to depletion of cellular dTTP and apoptosis. H, Sections stained with hematoxylin and eosin show the effect of MTX/TMECG on B16/F10 primary splenic tumors. Xenograft tumors treated with DMSO (vehicle) or MTX/TMECG (1 mg/kg/day and 50 mg/kg/day, respectively) over 14-days. […] Representative images taken from two independent experiments (n=5 for each experiment). Scale bar=200 μm and is applicable to both panels. I, B16/F10 melanoma cells, expressing a luciferase reporter, were injected subcutaneously to mice. Mice were divided in two groups (n=7) and treated with vehicle (DMSO) or MTX/TMECG (1 mg/kg/day and 10 mg/kg/day, respectively) over 21-days. Then, tumors were pooled and dissociated. B16/F10 cells extracted from tumors were examined for their sensitivity to the MTX/TMECG combination (1 μM and 10 μM, respectively) using quantification of the luminescence signal (left panel). J, The histogram represents the number of B16/F10-luc2 cells remaining after 3 days of MTX/TMECG treatment with respect to vehicle treated controls (100%). […] K, The morphology of tumor dissociated B16/F10-luc2 cells before and after of MTX/TMECG treatment. Scale bar refers to all panels. L, Histograms represent the number of copies of TYR mRNA for every 1×10^3 copies of β-actin±SD of three independent experiments. […]
To explore the toxicity of TMECG and MTX, these agents (at indicated concentrations) were administrated intradermally to the back of non-tumor inoculated female C57BL/6 mice (n=10), and body weight monitored every other day. […]

[6] = tested on: low passage patient-derived melanoma cells bearing MEK and BRAF mutations; assay: MTT assay on low passage patient-derived melanoma cell lines with BRAF and MEK1 or MEK2 mutations; type: cell-based, human; settings: BRAF-inhibitor and MEK-inhibitor resistant lines; MTX/TMECG 1 μM/10 μM, PLX-4720 1 μM
Description: G, MTT assay indicating effects of MTX/TMECG (1 μM/10 μM) and PLX-4720 (1 μM) treatment on low passage patient-derived melanoma cells bearing indicated MEK and BRAF mutations. Cells were treated with vehicle only (•), PLX-4720 ( ), or with a combination of MTX+TMECG (Δ). Note the number of cells at the start of the experiment was at the limit of detection. […] Error bars show mean±SD.
MTX/TMECG was tested against two low passage melanoma cell lines (fewer than 10 passages) derived from patients with activating BRAF mutations that are resistant to both BRAF-inhibitor and MEK-inhibitor therapy, owing to the presence of activating mutations in MEK1 or MEK2 (Nikolaev et al., 2011). In the MTT assays (FIGS. 2G and 5A) a low starting number of cells (2×10^3) was used, so that any proliferation could be readily visualized.
Cell viability was evaluated using the 3-(4,5-dimethylthiazol-2-yl)-2,5-diphenyltetrazolium bromide (MTT) cell proliferation assay.

[7] = target: 5-cytosine DNA methyltransferase-1 (Homo sapiens, UniProt P26358); assay: Inhibition of 5-cytosine DNA methyltransferase-1; type: biochemical; settings: data not shown
[8] = target: glutamate dehydrogenase (Homo sapiens, UniProt P00367); assay: Inhibition of glutamate dehydrogenase; type: biochemical; settings: data not shown
[9] = tested on: proteasome; assay: Inhibition of the proteasome; type: biochemical; settings: data not shown
[10] = target: T1, DHFR (Homo sapiens, UniProt P00374); settings: Sanchez-del-Campo et al., 2009a; cited from earlier work
T1 sequence (P00374 1-187): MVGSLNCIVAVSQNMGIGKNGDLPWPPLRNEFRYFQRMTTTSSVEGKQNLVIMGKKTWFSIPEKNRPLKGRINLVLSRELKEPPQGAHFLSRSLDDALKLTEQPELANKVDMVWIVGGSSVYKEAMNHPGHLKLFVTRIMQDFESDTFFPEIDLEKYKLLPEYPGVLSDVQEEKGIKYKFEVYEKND

Sequence of glutamate dehydrogenase (P00367 54-558): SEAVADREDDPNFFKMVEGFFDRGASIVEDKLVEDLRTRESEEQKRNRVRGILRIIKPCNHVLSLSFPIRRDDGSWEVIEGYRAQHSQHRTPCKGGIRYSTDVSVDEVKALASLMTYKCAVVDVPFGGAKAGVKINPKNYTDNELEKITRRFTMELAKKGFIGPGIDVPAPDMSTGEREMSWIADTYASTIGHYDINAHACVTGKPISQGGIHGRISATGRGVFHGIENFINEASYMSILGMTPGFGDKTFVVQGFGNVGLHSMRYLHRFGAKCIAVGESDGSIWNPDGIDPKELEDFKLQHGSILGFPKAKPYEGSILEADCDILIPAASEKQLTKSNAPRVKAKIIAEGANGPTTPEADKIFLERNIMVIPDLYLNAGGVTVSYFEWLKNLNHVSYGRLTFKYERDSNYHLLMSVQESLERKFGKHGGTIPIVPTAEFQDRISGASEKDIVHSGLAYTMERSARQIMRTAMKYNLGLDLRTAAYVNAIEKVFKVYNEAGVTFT
Sequence of 5-cytosine DNA methyltransferase-1 (P26358 whole entry): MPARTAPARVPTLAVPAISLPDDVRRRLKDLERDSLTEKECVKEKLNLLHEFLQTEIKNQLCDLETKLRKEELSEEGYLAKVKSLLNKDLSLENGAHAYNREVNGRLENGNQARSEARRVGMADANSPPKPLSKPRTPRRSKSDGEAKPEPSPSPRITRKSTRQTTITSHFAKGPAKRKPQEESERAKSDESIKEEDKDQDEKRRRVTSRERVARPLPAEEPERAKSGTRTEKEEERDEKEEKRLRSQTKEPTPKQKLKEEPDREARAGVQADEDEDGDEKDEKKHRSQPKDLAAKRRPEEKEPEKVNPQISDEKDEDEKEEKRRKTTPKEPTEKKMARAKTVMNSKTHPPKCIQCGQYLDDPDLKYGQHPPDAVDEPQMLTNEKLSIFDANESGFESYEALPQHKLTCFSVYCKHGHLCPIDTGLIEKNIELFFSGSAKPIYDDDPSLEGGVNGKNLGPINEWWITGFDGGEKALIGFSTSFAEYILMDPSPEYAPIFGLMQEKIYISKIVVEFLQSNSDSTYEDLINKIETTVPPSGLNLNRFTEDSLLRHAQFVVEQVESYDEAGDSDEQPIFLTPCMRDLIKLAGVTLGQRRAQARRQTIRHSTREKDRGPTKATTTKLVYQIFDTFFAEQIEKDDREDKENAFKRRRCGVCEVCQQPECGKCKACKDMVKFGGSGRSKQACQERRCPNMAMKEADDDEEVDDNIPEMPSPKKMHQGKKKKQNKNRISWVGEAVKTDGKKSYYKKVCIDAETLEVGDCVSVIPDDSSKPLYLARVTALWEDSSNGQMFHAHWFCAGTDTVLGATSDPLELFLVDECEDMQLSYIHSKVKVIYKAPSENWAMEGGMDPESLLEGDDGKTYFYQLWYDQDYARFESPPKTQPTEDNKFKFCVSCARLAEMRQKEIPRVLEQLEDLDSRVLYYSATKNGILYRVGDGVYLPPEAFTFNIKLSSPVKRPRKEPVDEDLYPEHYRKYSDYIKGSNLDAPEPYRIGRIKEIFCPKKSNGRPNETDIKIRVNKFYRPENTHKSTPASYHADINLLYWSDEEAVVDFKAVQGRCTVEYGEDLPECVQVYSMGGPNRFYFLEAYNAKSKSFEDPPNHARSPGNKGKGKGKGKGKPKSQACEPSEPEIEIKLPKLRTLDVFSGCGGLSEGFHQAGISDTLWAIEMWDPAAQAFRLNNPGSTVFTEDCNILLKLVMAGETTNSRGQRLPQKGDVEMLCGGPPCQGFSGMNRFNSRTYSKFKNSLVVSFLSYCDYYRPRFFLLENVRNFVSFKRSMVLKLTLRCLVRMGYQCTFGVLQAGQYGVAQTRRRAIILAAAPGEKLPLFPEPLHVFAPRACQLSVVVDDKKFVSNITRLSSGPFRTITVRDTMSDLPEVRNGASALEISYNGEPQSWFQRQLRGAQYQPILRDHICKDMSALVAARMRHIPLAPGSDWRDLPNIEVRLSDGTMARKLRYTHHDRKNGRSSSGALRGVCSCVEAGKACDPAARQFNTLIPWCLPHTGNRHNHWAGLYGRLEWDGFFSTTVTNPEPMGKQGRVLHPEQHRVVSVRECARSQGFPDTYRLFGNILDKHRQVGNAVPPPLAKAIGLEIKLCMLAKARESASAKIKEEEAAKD

SMILES: COc1cc(C(=O)O[C@@H]2Cc3c(O)cc(O)cc3O[C@@H]2c2ccc(O)c(O)c2)cc(OC)c1OC [TMECG, 3,4,5-trimethoxy-epicatechin-3-gallate]
DHF intracellular concentration [1]: 4.8 ± 0.9 pmol/10^6 cells
tumor growth [2]: significantly reduced
necrotic areas in splenic tumors ([3]; 14 days treatment, MTX 1 mg/kg/day and/or TMECG 50 mg/kg/day): 11%±3%
effect on in vivo luciferase signal ([3]; MTX or TMECG alone, 12 days post-tumor cell injection): around 2 fold
AUC ([4]; read-out: TMECG Parameters AUC): 79.1 µg·h/mL
Cmax ([4]; read-out: TMECG Parameters Cmax): 39.3 µg/mL
Tmax ([4]; read-out: TMECG Parameters Tmax): 5.4 min
half-life ([4]; read-out: TMECG Parameters t1/2 (converted)): 107 min
mouse body weight ([5]; TMECG-treated versus untreated groups): not significant
toxicity in vivo ([5]; preliminary observations): not toxic in vivo

SMILES: CCCS(=O)(=O)Nc1ccc(F)c(C(=O)c2c[nH]c3ncc(Cl)cc23)c1F [PLX-4720]
proliferation (MTT) [6]: failed to impact significantly on proliferation

inhibition of 5-cytosine DNA methyltransferase-1 [7]: does not inhibit
inhibition of glutamate dehydrogenase [8]: does not inhibit
SMILES: COc1cc(C(=O)O[C@H](Cc2c(O)cc(O)cc2O)C(=O)c2ccc(O)c(O)c2)cc(OC)c1OC [TMECG-QM]
inhibition of the proteasome [9]: does not inhibit
inhibition constant for DHFR [10]: nanomolar order

Source: patent US20150231109A1, “COMBINATIONS (CATECHINS AND METHOTREXATE) FOR USE IN THE TREATMENT OF MELANOMAS” (UNIVERSIDAD DE MURCIA, priority 2012, published 2015)
